From patent US11026943B2, “Aminoquinoline derivatives and uses thereof” (UNIVERSITY OF DELHI, priority 2012, dated 2021) come the findings set out here.

Data set [1] has as its system HepG2 cells. Kind of data set: In vitro cytotoxicity to mammalian cells, HepG2. The following applies: Homo sapiens. The data set is classed as cell-based. The source says:
(§1) Med. Chem. 2005, 13, 4458; Khan, I. A. Lipids 2004, 37, 169].

Data set [2] deals with LLC-PK-1 cells. Kind of data set: In vitro cytotoxicity to mammalian cells, LLC-PK-1. The following applies: Sus scrofa, LLC-PK1. The data set is classed as cell-based.
Description: as §1

Data set [3] relates to CQ-resistant (W2 clone) strain of P. falciparum. The experiment in a line: In vitro antimalarial activity, CQ-resistant strain. It counts as cell-based, Plasmodium falciparum. The settings on record: for IC50: Plasmodium falciparum, CQ-resistant W2 clone, read-out: P. falciparum (W2 Clone) IC50; for P. falciparum (W2 Clone) S.I.: selectivity index = IC50 cytotoxicity to Vero cells / IC50 antimalarial.
Description: as §1

Data set [4] concerns CQ-sensitive (D6 clone) strain of P. falciparum. Kind of data set: In vitro antimalarial activity, CQ-sensitive strain. The following applies: for IC50: Plasmodium falciparum, CQ-sensitive D6 clone, read-out: P. falciparum (D6 Clone) IC50; for P. falciparum (D6 Clone) S.I.: selectivity index = IC50 cytotoxicity to Vero cells / IC50 antimalarial; for activity fold higher than artemisinin: CQ-sensitive strain. The data set is classed as cell-based, Plasmodium falciparum.
Description: as §1

In data set [5] the test system is VERO cells. Kind of data set: In vitro cytotoxicity to mammalian cells, VERO. It counts as cell-based. The following applies: for IC50: Chlorocebus sabaeus, Vero, in vitro cytotoxicity to mammalian cells.
Description: as §1

The test system of data set [6] is parasitemia. Kind of data set: In-vivo antimalarial activity in mice. The settings on record: mice; for parasitemia suppression / % Parasitemia suppression Day 5: day 5; for parasitemia suppression / survival rate / apparent toxicity: 30 mg/kg for 3 days post infection; for survival rate / Survival (animals that survived day 28/total animals in group): day 28; for Cure (number of mice without parasitemia till day 28 post-infection) / MST (mean survival time) / Remarks (toxicity) / % Parasitemia suppression Day 5 / % Parasitemia suppression Day 7 / Survival (animals that survived day 28/total animals in group) / Day of Death: PO; for Day of Death: per animal.

Where [7] appears, read: 3.3 mg/kg × 3 days post-infection.
The mark [8] stands for this setting: 10 mg/kg × 3 days post-infection.
Setting [9] is: 30 mg/kg × 3 days post-infection.

Where only a bound is given, the exact number is not on record here.

For orientation: melting point means the temperature of the solid-liquid transition. `Cc1cc(NCCCCNc2ccnc3cc(Cl)ccc23)nc(N2CCOCC2)n1` [12g, N-(7-Chloro-quinolin-4-yl)-N′-(6-methyl-2-morpholin-4-yl-pyrimidin-4-yl)-butane-1,4-diamine] displayed a melting point of 214 to 216 °C.
The IC50 is the midpoint of a concentration-inhibition curve. `Cc1cc(NCCNc2ccnc3cc(Cl)ccc23)nc(N2CCOCC2)n1` [12e, N-(7-Chloro-quinolin-4-yl)-N′-(6-methyl-2-morpholin-4-yl-pyrimidin-4-yl)-ethane-1,2-diamine] came in with a melting point of 165 to 167 °C. The compound also gave a concentration for half-maximal inhibition (IC50) in data set [1] of more than 60 µM. For the same compound, the concentration for half-maximal inhibition (IC50) in data set [2] is more than 60 µM. In data set [3], the IC50 was 120 nM and the “P. falciparum (W2 Clone) S.I.” value is “(>500)”. In addition, in data set [4], the IC50 came out at 25 nM and the “P. falciparum (D6 Clone) S.I.” value was “(>2400)”. The same compound yielded an IC50 in data set [5] of more than 60 µM.
For the compound `CCN1CCN(c2nc(C)cc(NCCCNc3ccnc4cc(Cl)ccc34)n2)CC1` [12m, N-(7-Chloro-quinolin-4-yl)-N′-[2-(4-ethyl-piperazin-1-yl)-6-methyl-pyrimidin-4-yl]-propane-1,3-diamine], the half-inhibitory concentration (IC50) in data set [1] was more than 60 µM. In data set [2], this compound returned an IC50 of more than 60 µM. In data set [6], the parasitemia suppression turned out to be 100%, the survival rate was 4/5 and the apparent toxicity entry was “No apparent toxicity”. Moreover, in data set [6] (setting [7]), the “Cure (number of mice without parasitemia till day 28 post-infection)” value is listed as 0/5, the “MST (mean survival time)” value was found to be 20.2 days, the “Remarks (toxicity)” value is “No apparent” and the “% Parasitemia suppression Day 5” value amounted to 20.12%. Also, in data set [6] (setting [7]), the “% Parasitemia suppression Day 7” value was determined as 19.09%, the “Survival (animals that survived day 28/total animals in group)” value is reported as 0/5 and the “Day of Death” value was 17/21/21/21/21. In addition, in data set [6] (setting [8]), the “Cure (number of mice without parasitemia till day 28 post-infection)” value is 0/5, the “MST (mean survival time)” value came out at 15.2 days, the “Remarks (toxicity)” value is given as “No apparent” and the “% Parasitemia suppression Day 5” value came to 73.89%. In data set [6] (setting [8]), the “% Parasitemia suppression Day 7” value came out at 27.14%, the “Survival (animals that survived day 28/total animals in group)” value is 0/5 and the “Day of Death” value is given as 7/21/20/7/21. Further, in data set [6] (setting [9]), the “Cure (number of mice without parasitemia till day 28 post-infection)” value is 1/5, the “MST (mean survival time)” value is recorded as 27.2 days, the “Remarks (toxicity)” value is “No apparent” and the “% Parasitemia suppression Day 5” value turned out to be 100.00%. Besides, in data set [6] (setting [9]), the “% Parasitemia suppression Day 7” value worked out at 100.00%, the “Survival (animals that survived day 28/total animals in group)” value is 4/5 and the “Day of Death” value is reported as 28/28/28/28/24. In addition, in data set [3], the IC50 is 61 nM and the “P. falciparum (W2 Clone) S.I.” value is given as “(>983)”. Also, in data set [4], the “activity fold higher than artemisinin” value is 2 fold, the concentration for half-maximal inhibition (IC50) amounted to 6 nM and the “P. falciparum (D6 Clone) S.I.” value is on record as “(>10000)”. This compound also had an IC50 in data set [5] of more than 60 µM.
In data set [1], `Cc1cc(NCCNc2ccnc3cc(Cl)ccc23)nc(N2CCN(C)CC2)n1` [12i, N-(7-Chloro-quinolin-4-yl)-N′-[6-methyl-2-(4-methyl-piperazin-1-yl)-pyrimidin-4-yl]-ethane-1,2-diamine] came in with an IC50 of more than 60 µM. Also, the IC50 in data set [2] is more than 60 µM. Further, in data set [6], the parasitemia suppression is listed as 100%, the survival rate is recorded as 5/5 and the apparent toxicity entry is reported as “No apparent toxicity”. In data set [6] (setting [7]), the “Cure (number of mice without parasitemia till day 28 post-infection)” value is reported as 0/5, the “MST (mean survival time)” value is 19.2 days, the “Remarks (toxicity)” value is “No apparent” and the “% Parasitemia suppression Day 5” value worked out at 23.52%. In addition, in data set [6] (setting [7]), the “% Parasitemia suppression Day 7” value was determined as 35.21%, the “Survival (animals that survived day 28/total animals in group)” value is 1/5 and the “Day of Death” value is 21/28/21/13/13. Moreover, in data set [6] (setting [8]), the “Cure (number of mice without parasitemia till day 28 post-infection)” value was 0/5, the “MST (mean survival time)” value is 21.4 days, the “Remarks (toxicity)” value is given as “No apparent” and the “% Parasitemia suppression Day 5” value was found to be 97.03%. For the same compound, in data set [6] (setting [8]), the “% Parasitemia suppression Day 7” value amounted to 2.03%, the “Survival (animals that survived day 28/total animals in group)” value was 0/5 and the “Day of Death” value is listed as 21/22/22/21/21. In addition, in data set [6] (setting [9]), the “Cure (number of mice without parasitemia till day 28 post-infection)” value is listed as 4/5, the “MST (mean survival time)” value came out at 28 days, the “Remarks (toxicity)” value is on record as “No apparent” and the “% Parasitemia suppression Day 5” value stood at 100.00%. Also, in data set [6] (setting [9]), the “% Parasitemia suppression Day 7” value was 100.00%, the “Survival (animals that survived day 28/total animals in group)” value is 5/5 and the “Day of Death” value is listed as 28/28/28/28/28. In data set [3], the half-inhibitory concentration (IC50) turned out to be 46 nM and the “P. falciparum (W2 Clone) S.I.” value is “(>1304)”. In addition, in data set [4], the “activity fold higher than artemisinin” value turned out to be 2 fold, the half-maximal inhibitory concentration (IC50) turned out to be 6 nM and the “P. falciparum (D6 Clone) S.I.” value is “(>10000)”. For the same compound, in data set [5], the IC50 is more than 60 µM.
In the case of `Cc1cc(NCCCNc2ccnc3cc(Cl)ccc23)nc(N2CCN(C)CC2)n1` [12j, N-(7-Chloro-quinolin-4-yl)-N′-[6-methyl-2-(4-methyl-piperazin-1-yl)-pyrimidin-4-yl]-propane-1,3-diamine], the melting point is 176 to 178 °C. Further, the 50% inhibitory concentration (IC50) in data set [1] was found to be 25.8 µM. Half-maximal inhibition in data set [2] (IC50) required 35.2 µM. For the same compound, in data set [3], the half-inhibitory concentration (IC50) came out at 63 nM and the “P. falciparum (W2 Clone) S.I.” value was “(>952)”. Also, in data set [4], the “activity fold higher than artemisinin” value is on record as 2 fold, the 50% inhibitory concentration (IC50) is 7 nM and the “P. falciparum (D6 Clone) S.I.” value is reported as “(>8571)”. For the same compound, in data set [5], the IC50 was more than 60 µM.
In the case of `Cc1cc(NCCCNc2ccnc3cc(Cl)ccc23)nc(N2CCOCC2)n1` [12f, N-(7-Chloro-quinolin-4-yl)-N′-(6-methyl-2-morpholin-4-yl-pyrimidin-4-yl)-propane-1,3-diamine], the melting point lay in the range of 165 to 167 °C. Inhibition in data set [1] was half-maximal at 26.1 µM (IC50). It took 35.1 µM to reach half-maximal inhibition in data set [2] (IC50). In data set [3], the half-inhibitory concentration (IC50) worked out at 58 nM and the “P. falciparum (W2 Clone) S.I.” value is recorded as “(>1034)”. Also, in data set [4], the half-maximal inhibitory concentration (IC50) came to 22 nM and the “P. falciparum (D6 Clone) S.I.” value was “(>2727)”. The compound further came in with an IC50 in data set [5] of more than 60 µM.
With `Cc1cc(NCCCCCCNc2ccnc3cc(Cl)ccc23)nc(N2CCCCC2)n1` [12d, N-(7-Chloro-quinolin-4-yl)-N′-(6-methyl-2-piperidin-1-yl-pyrimidin-4-yl)-hexane-1,6-diamine], the melting point is 97 to 99 °C. For the same compound, the IC50 in data set [1] was less than 6.7 µM. Further, the IC50 in data set [2] was less than 6.7 µM. In data set [3], the IC50 was determined as 128 nM and the “P. falciparum (W2 Clone) S.I.” value was 73.4. Also, in data set [4], the IC50 was 66 nM and the “P. falciparum (D6 Clone) S.I.” value is recorded as 142.4. Moreover, in data set [4] (ratio of IC50 for cytotoxicity to Vero cells and IC50 for antimalarial activity), the “selectivity index of antimalarial activity” value was “considerably high”. Half-maximal inhibition in data set [5] (IC50) was put at 9.4 µM. Besides, in data set [5] (all the three cell lines (VERO, LLC-PK-1, and HepG2)), the “toxicity to cell lines” value was “showed toxicity”.
Turning to `Cc1cc(NCCNc2ccnc3cc(Cl)ccc23)nc(N2CCCCC2)n1` [12a, N-(7-chloro-quinolin-4-yl)-N′-(6-methyl-2-piperidin-1-yl-pyrimidin-4-yl)-ethane-1,2-diamine], the melting point is 177 to 179 °C.
